# Reference: the supplement of paper PMC12370961
# Key:
# Assay in all cases: differential drug sensitivity score (dDSS) relative to sarcoma reference cohort mean DSS (DSS units (0-100 scale difference)); higher = more selective sensitivity than reference sarcomas
# Details in all cases: exposure time: 72 h; concentration range: 10-10000 nM
# [1] = tested on: ES-ZH016 direct (Ewing sarcoma cells right after isolation)
# Description: (§1)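 Drug response profiling of patient-derived Ewing sarcoma and CIC::DUX4 sarcoma tumoroid models (or cells tested directly after isolation from the tumor, 'direct'). The DSS is the normalised AUC (0-100); dDSS is the sample DSS minus the mean DSS of a 34-sarcoma reference cohort profiled in the same lab.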
# [2] = tested on: ES-ZH007 (patient-derived Ewing sarcoma tumoroid)
# Description: as §1
# [3] = tested on: CDS-ZH002 direct (CIC-DUX4 sarcoma cells right after isolation)
# Description: as §1
# [4] = tested on: ES-ZH009 (patient-derived Ewing sarcoma tumoroid)
# Description: as §1
# [5] = tested on: CDS-ZH003 (patient-derived CIC-DUX4 sarcoma tumoroid)
# Description: as §1
# [6] = tested on: CDS-ZH001 (patient-derived CIC-DUX4 sarcoma tumoroid)
# Description: as §1
# [7] = tested on: ES-ZH002 (patient-derived Ewing sarcoma tumoroid)
# Description: as §1
# [8] = tested on: CDS-ZH001-2 (patient-derived CIC-DUX4 sarcoma tumoroid)
# Description: as §1
# [9] = tested on: ES-ZH016 (patient-derived Ewing sarcoma tumoroid)
# Description: as §1
# [10] = tested on: CDS-ZH002 (patient-derived CIC-DUX4 sarcoma tumoroid)
# Description: as §1
# [11] = tested on: ES-ZH008 (patient-derived Ewing sarcoma tumoroid)
# Description: as §1
# [12] = tested on: ES-ZH001 (patient-derived Ewing sarcoma tumoroid)
# Description: as §1
# [13] = tested on: ES-ZH004 (patient-derived Ewing sarcoma tumoroid)
# Description: as §1
Compound,differential drug sensitivity score [1],differential drug sensitivity score [2],differential drug sensitivity score [3],differential drug sensitivity score [4],differential drug sensitivity score [5],differential drug sensitivity score [6],differential drug sensitivity score [7],differential drug sensitivity score [8],differential drug sensitivity score [9],differential drug sensitivity score [10],differential drug sensitivity score [11],differential drug sensitivity score [12],differential drug sensitivity score [13]
C=CC(=O)Nc1cccc(Nc2nc(Nc3ccc(OCCOC)cc3)ncc2F)c1 [Spebrutinib],4.7,-1.6,-3.5,-2,-2.8,-2.5,8.3,-3.1,-1.4,-2.9,4.7,1.8,3.7
COc1cc(NS(C)(=O)=O)ccc1Nc1c2ccccc2nc2ccccc12 [Amsacrine],13.3,8.9,-4.1,8.4,-12.8,-1.9,27.1,3,13.7,1.6,16.3,12.5,8.8
N[C@@H](Cc1ccc(N(CCCl)CCCl)cc1)C(=O)O [Melphalan],4,-1.7,-1.7,-1.3,-1.7,-1.7,7,-1.7,3.5,-1.7,2.7,-1,4.3
CCN(CC)CCCC(C)Nc1nc(C)cc(Nc2ccc3nc(C)cc(N)c3c2)n1 (stereo not given),-1,0.4,2.8,-0.9,-1,-0.8,0.7,9.7,-1,1.1,-1,-1,1.1
Cc1nc(Nc2ncc(C(=O)Nc3c(C)cccc3Cl)s2)cc(N2CCN(CCO)CC2)n1 [Dasatinib],9.3,-6.8,8.9,-7,-9.6,-11.9,2.2,-4.6,-10.8,-3.2,-7.5,-4.5,-3.6
O=c1cc(-c2cccc3c2Sc2ccccc2S3)oc(N2CCOCC2)c1,13.8,-1.3,3.7,-0.4,-1.3,0,-1.3,2.9,-1.3,-0.2,-1.3,-1.3,-1.3
CC1(C)CCC(CN2CCN(c3ccc(C(=O)NS(=O)(=O)c4ccc(NCC5CCOCC5)c([N+](=O)[O-])c4)c(Oc4cnc5[nH]ccc5c4)c3)CC2)=C(c2ccc(Cl)cc2)C1 [Venetoclax],5.9,-4.7,-3.5,-1.6,-9.4,3.9,7.9,1.4,-2.6,-4.7,7.3,6.9,6.1
Cn1cc(C2=C(c3ccc(Cl)cc3Cl)C(=O)NC2=O)c2ccccc21,0.4,0.1,-1.5,-1.5,-6.5,-1.5,5.1,-1.5,-1.5,-1.5,3.8,6.9,2.1
O=C(NCCCNc1nc(Nc2cccc(NC(=O)N3CCCC3)c2)ncc1I)c1cccs1 [BX-795],5.1,0,-2.6,1.1,5.5,-4.1,2.2,-2.6,2.6,-1.9,-2.2,3.7,-3.5
CCn1c(-c2nonc2N)nc2cnc(Oc3cccc(NC(=O)c4ccc(OCCN5CCOCC5)cc4)c3)cc21,-1.7,-2.1,-2.4,6.5,-1.3,-2.7,4.5,1.1,2,-2.9,-2.1,1.8,-2.6
CCN1CCN(Cc2ccc(-c3cc4c(N[C@H](C)c5ccccc5)ncnc4[nH]3)cc2)CC1 [AEE788],-6.1,-4,-1.2,1.6,5.8,-0.7,0.3,-0.2,-4.1,-3,-0.1,3.6,-1.1
COc1cc(Nc2ncc3c(n2)-c2ccc(Cl)cc2C(c2c(F)cccc2OC)=NC3)ccc1C(=O)O [Alisertib],17.2,8.5,-7.3,15.8,-0.9,-3.4,21.5,5.5,15.3,-3.7,8.2,20,-11.3
CN(NC(=O)CC(=O)NN(C)C(=S)c1ccccc1)C(=S)c1ccccc1 [Elesclomol],7.7,28.6,-6,-0.7,-5.7,-6,18.6,2,-6,-4,6.3,0.9,40.9
COC1=CC(c2cc3ccccc3[nH]2)=N/C1=C\c1[nH]c(C)cc1C [Obatoclax],3.3,7.5,4.4,1.5,-3,-3.8,2.9,-0.2,2.1,-2.4,4,-0.7,6.9
CN(C)Cc1c(C(=O)NCCOc2ccc(C(=O)NO)cc2)oc2ccccc12 [Abexinostat],2.4,4.9,-0.7,10.5,-11.2,-3.5,3.9,4.2,4.3,0.1,9.6,5.3,3.2
